Measurements as given in ChEMBL document CHEMBL1201862, “PubChem BioAssay data set” (2004).
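Method: 48-hour compound exposure of cells in 96-well plates, five concentrations, linear interpolation of endpoints. GI50 = concentration required for 50% inhibition of growth.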 The source made the active and inactive calls. Cut-off read from the data, not from the text of the source: active = GI50 up to about 1.1 µM and inactive = higher.

How the values were obtained:
Assay in all cases: DTP human tumour cell line panel, 48 h
A549 = test system: A549
SW-620 = test system: SW-620
NCI-H226 = test system: NCI-H226
HOP-62 = test system: HOP-62
CAKI-1 = test system: CAKI-1
OVCAR-3 = test system: OVCAR-3
786-0 = test system: 786-0
NCI-H522 = test system: NCI-H522
CCRF-CEM = test system: CCRF-CEM
HCT-15 = test system: HCT-15
SK-MEL-5 = test system: SK-MEL-5
NCI/ADR-RES = test system: NCI/ADR-RES
LOX IMVI = test system: LOX IMVI
T47D = test system: T47D
SNB-19 = test system: SNB-19
U-251 = test system: U-251
OVCAR-4 = test system: OVCAR-4
RXF 393 = test system: RXF 393
OVCAR-5 = test system: OVCAR-5
SR = test system: SR

Row | SMILES | GI50 (A549) | GI50 (SW-620) | GI50 (NCI-H226) | GI50 (HOP-62) | GI50 (CAKI-1) | GI50 (OVCAR-3) | GI50 (786-0) | GI50 (NCI-H522) | GI50 (CCRF-CEM) | GI50 (HCT-15) | GI50 (SK-MEL-5) | GI50 (NCI/ADR-RES) | GI50 (LOX IMVI) | GI50 (T47D) | GI50 (SNB-19) | GI50 (U-251) | GI50 (OVCAR-4) | GI50 (RXF 393) | GI50 (OVCAR-5) | GI50 (SR)
1 | CCNc1ccc2c(c1)C(=O)N(OS(C)(=O)=O)C2=O | > 100 µM (inactive) | 37.6 µM (inactive) | 29 µM (inactive) | > 100 µM (inactive) | 70 µM (inactive) | 40.7 µM (inactive) | 34.1 µM (inactive) | 16.4 µM (inactive) | 32.1 µM (inactive) | 36.1 µM | 41.2 µM (inactive) | > 100 µM (inactive) | 38.3 µM (inactive) | > 100 µM (inactive) | > 100 µM (inactive) | > 100 µM (inactive) | 42 µM (inactive) | 32.4 µM (inactive) |  | 
2 | CCCCCCCC[N+](C)(C)Cc1ccc(C[N+](C)(C)CCCCCCCC)cc1 | 32.8 µM (inactive) | 91.2 µM (inactive) | 34.5 µM (inactive) | 4.11 µM (inactive) | 45.4 µM (inactive) | 29.6 µM (inactive) | > 100 µM (inactive) | 5.58 µM (inactive) | > 100 µM (inactive) | > 100 µM | 36.7 µM (inactive) |  | 84.5 µM (inactive) |  | 24.6 µM (inactive) | 6.53 µM (inactive) | 18.6 µM (inactive) | 78.7 µM (inactive) | > 100 µM (inactive) | > 100 µM (inactive)
3 | CCCCn1c2c(n(CCCC)c1=[Se])-c1c(n(CCCC)c(=[Se])n1CCCC)S[Se][Se]S2 | 20.7 µM (inactive) | 6.01 µM (inactive) | 6.52 µM (inactive) | 13.7 µM (inactive) | 5.3 µM (inactive) | 6.95 µM (inactive) | 29.4 µM (inactive) | 1.61 µM (inactive) | 3.78 µM (inactive) | 13.7 µM | 16.6 µM (inactive) | 19.5 µM (inactive) | 16.5 µM (inactive) |  | 17 µM (inactive) | 11.4 µM (inactive) | 9.27 µM (inactive) | 21.8 µM (inactive) | 20.7 µM (inactive) | 20.7 µM (inactive)
4 | CC1=C(c2ccccc2)CON(c2ccccc2)C1 | 54.5 µM (inactive) | 39.4 µM (inactive) | 85.7 µM (inactive) | 66.2 µM (inactive) | 39.6 µM (inactive) | 85.7 µM (inactive) | 36.8 µM (inactive) | 15.2 µM (inactive) | 25.1 µM (inactive) | 28.4 µM | 20.5 µM (inactive) |  | 30.8 µM (inactive) |  | 39.4 µM (inactive) | 25.8 µM (inactive) | > 100 µM (inactive) | 16.9 µM (inactive) | 32.9 µM (inactive) | 31.3 µM (inactive)
5 | CC(C)C(=S)N(C)O | 12.4 µM (inactive) | 1.52 µM (inactive) | 44 µM (inactive) | 24.5 µM (inactive) | 19.9 µM (inactive) | 2.82 µM (inactive) | 18.3 µM (inactive) | 6.08 µM (inactive) | 0.502 µM (active) | 24.2 µM | 8.02 µM (inactive) |  | 11.8 µM (inactive) |  | > 29.2 µM (inactive) | 28.4 µM (inactive) | 9.89 µM (inactive) | 98.9 µM (inactive) | > 65.5 µM (inactive) | 0.481 µM (active)
6 | C[n+]1c(-c2ccc(/C=N/NC(=O)C(=O)N/N=C/c3ccc(-c4cn5ccccc5[n+]4C)cc3)cc2)cn2ccccc21 | > 100 µM (inactive) | > 100 µM (inactive) | > 100 µM (inactive) | > 100 µM (inactive) | > 100 µM (inactive) | 45.9 µM (inactive) | > 100 µM (inactive) | > 100 µM (inactive) | > 100 µM (inactive) | > 100 µM | 91 µM (inactive) | > 100 µM (inactive) |  |  | > 100 µM (inactive) | > 100 µM (inactive) | > 100 µM (inactive) | > 100 µM (inactive) | > 100 µM (inactive) | 
7 | CN(C)CCCNC(=O)c1cc(NC(=O)c2cc(NC(=O)[C@H]3C[C@@H]3C(=O)Nc3cc(C(=O)Nc4cc(C(=O)NCCCN(C)C)n(C)c4)n(C)c3)cn2C)cn1C | > 100 µM (inactive) | > 100 µM (inactive) | > 100 µM (inactive) | > 100 µM (inactive) | > 100 µM (inactive) |  | > 100 µM (inactive) | 65 µM (inactive) | > 100 µM (inactive) | > 100 µM | > 100 µM (inactive) | > 100 µM (inactive) | > 100 µM (inactive) |  | > 100 µM (inactive) | > 100 µM (inactive) | > 100 µM (inactive) |  | > 100 µM (inactive) | > 100 µM (inactive)
8 | O=[N+]([O-])c1ccc(CSC2=C(c3ccc(Cl)cc3)S/C(=C3\SC(SCc4ccc([N+](=O)[O-])cc4)=C(c4ccc(Cl)cc4)S3)S2)cc1 | > 100 µM (inactive) | > 100 µM (inactive) | > 100 µM (inactive) | > 100 µM (inactive) | > 100 µM (inactive) | > 100 µM (inactive) | > 100 µM (inactive) | > 100 µM (inactive) | > 100 µM (inactive) | > 100 µM | > 100 µM (inactive) | > 100 µM (inactive) | > 100 µM (inactive) | > 100 µM (inactive) | > 100 µM (inactive) | > 100 µM (inactive) | > 100 µM (inactive) | > 100 µM (inactive) | > 100 µM (inactive) | 
